One experiment concerns Pseudomonas aeruginosa. Particulars: mixed-species biofilms grown 22 hours, 20 hours of treatment. The method, then: (§1) Several CSA compounds were tested against Pseudomonas aeruginosa and Staphylococcus aureus mixed-species biofilms grown for an initial 22 hours and subjected to 20 hours of treatment.
For another experiment, the system named is Staphylococcus aureus. The note with it: mixed-species biofilms grown 22 hours, 20 hours of treatment. On the procedure:
as §1

SMILES strings stand for the structures. ≈ marks a conversion by molar mass, not a printed value.

For `CCCCCCCCCCOC(=O)CCC(C)C1CCC2C3C(OC(=O)CCN)CC4CC(OC(=O)CCN)CCC4(C)C3CC(OC(=O)CCN)C12C.Cl.Cl.Cl` (centres unmarked) [CSA-144], in the experiment with Pseudomonas aeruginosa, the “MBC P. aeruginosa” value came to 50 µg/mL and the “MIC P. aeruginosa” value was determined as 12.5 µg/mL. In addition, in the experiment on Staphylococcus aureus, the “MBC S. aureus” value is 3.125 µg/mL and the “MIC S. aureus” value was found to be 3.125 µg/mL.

As for `CCCCCCCCNC(=O)CCC(C)C1CCC2C3C(OCCCN)CC4CC(OCCCN)CCC4(C)C3CC(OCCCN)C12C.Cl.Cl.Cl` (centres unmarked) [CSA-192], in the experiment with Pseudomonas aeruginosa, the “MBC P. aeruginosa” value turned out to be 6.25 µg/mL and the “MIC P. aeruginosa” value is 3.125 µg/mL. In the experiment with Staphylococcus aureus, the “MBC S. aureus” value turned out to be 1.56 µg/mL and the “MIC S. aureus” value turned out to be 0.78 µg/mL.

As for `CC(O)C1CCC2C3C(OCCCN)CC4CC(OCCCN)CCC4(C)C3CC(OCCCN)C12C.Cl.Cl.Cl` (mixture of isomers) [CSA-11], in the experiment with Pseudomonas aeruginosa, the “MBC P. aeruginosa” value was over 200 µg/mL and the “MIC P. aeruginosa” value is over 200 µg/mL. In the experiment with Staphylococcus aureus, the “MBC S. aureus” value was found to be 50 µg/mL and the “MIC S. aureus” value stood at 50 µg/mL.

As to `CC[C@H](C)[C@H](NC(=O)[C@H](CCCCN)NC(=O)[C@H](CCC(=O)O)NC(=O)[C@H](CCCCN)NC(=O)[C@H](CO)NC(=O)[C@H](CCCCN)NC(=O)[C@H](CCCNC(=N)N)NC(=O)[C@H](Cc1ccccc1)NC(=O)[C@H](Cc1ccccc1)NC(=O)[C@H](CC(=O)O)NC(=O)CNC(=O)[C@H](CC(C)C)NC(=O)[C@@H](N)CC(C)C)C(=O)NCC(=O)N[C@@H](CCCCN)C(=O)N[C@@H](CCC(=O)O)C(=O)N[C@@H](Cc1ccccc1)C(=O)N[C@@H](CCCCN)C(=O)N[C@@H](CCCNC(=N)N)C(=O)N[C@H](C(=O)N[C@H](C(=O)N[C@@H](CCC(N)=O)C(=O)N[C@@H](CCCNC(=N)N)C(=O)N[C@H](C(=O)N[C@@H](CCCCN)C(=O)N[C@@H](CC(=O)O)C(=O)N[C@@H](Cc1ccccc1)C(=O)N[C@@H](CC(C)C)C(=O)N[C@@H](CCCNC(=N)N)C(=O)N[C@@H](CC(N)=O)C(=O)N[C@@H](CC(C)C)C(=O)N[C@H](C(=O)N1CCC[C@H]1C(=O)N[C@@H](CCCNC(=N)N)C(=O)N[C@H](C(=O)N[C@@H](CCC(=O)O)C(=O)N[C@@H](CO)C(=O)O)[C@@H](C)O)C(C)C)[C@@H](C)CC)C(C)C)[C@@H](C)CC` [LL-37, reference compound], in the experiment on Pseudomonas aeruginosa, the “MBC P. aeruginosa” value is over 200 µg/mL and the “MIC P. aeruginosa” value was over 200 µg/mL. In addition, in the experiment with Staphylococcus aureus, the “MBC S. aureus” value is over 200 µg/mL and the “MIC S. aureus” value was over 200 µg/mL.

For `CCCCCCCCCOC(=O)CCC(C)C1CCC2C3C(OC(=O)CCN)CC4CC(OC(=O)CCN)CCC4(C)C3CC(OC(=O)CCN)C12C.Cl.Cl.Cl` (centres unmarked) [CSA-145], in the experiment with Pseudomonas aeruginosa, the “MBC P. aeruginosa” value amounted to 50 µg/mL and the “MIC P. aeruginosa” value is 12.5 µg/mL. Also, in the experiment on Staphylococcus aureus, the “MBC S. aureus” value was found to be 3.125 µg/mL and the “MIC S. aureus” value worked out at 3.125 µg/mL.

As for `CCCCCCCCNCCC[C@@H](C)[C@H]1CC[C@H]2[C@@H]3[C@H](OCCCN)C[C@@H]4C[C@H](OCCCN)CC[C@]4(C)[C@H]3C[C@H](OCCCN)[C@]12C` [CSA-13], in the experiment with Pseudomonas aeruginosa, the “MBC P. aeruginosa” value was 6.25 µg/mL (≈ 9.23 µM) and the “MIC P. aeruginosa” value is 3.125 µg/mL (≈ 4.62 µM). Moreover, in the experiment with Staphylococcus aureus, the “MBC S. aureus” value was found to be 0.78 µg/mL (≈ 1.15 µM) and the “MIC S. aureus” value is 0.78 µg/mL (≈ 1.15 µM).

`CCCCCCOC(=O)CCC(C)C1CCC2C3C(OC(=O)CCN)CC4CC(OC(=O)CCN)CCC4(C)C3CC(OC(=O)CCN)C12C.Cl.Cl.Cl` (centres unmarked) [CSA-142]: in the experiment on Pseudomonas aeruginosa, the “MBC P. aeruginosa” value was determined as 3.125 µg/mL and the “MIC P. aeruginosa” value was found to be 3.125 µg/mL. Also, in the experiment with Staphylococcus aureus, the “MBC S. aureus” value turned out to be 3.125 µg/mL and the “MIC S. aureus” value was determined as 3.125 µg/mL.

On to `CC(CCCOCCCN)C1CCC2C3C(OCCCN)CC4CC(OCCCN)CCC4(C)C3CC(OCCCN)C12C.Cl.Cl.Cl.Cl` (centres unmarked) [CSA-25], for which, in the experiment on Pseudomonas aeruginosa, the “MBC P. aeruginosa” value turned out to be 50 µg/mL and the “MIC P. aeruginosa” value turned out to be 25 µg/mL. Besides, in the experiment on Staphylococcus aureus, the “MBC S. aureus” value came out at 3.25 µg/mL and the “MIC S. aureus” value was found to be 1.56 µg/mL.

`C[C@H](CCCNCCCNCCCN)[C@H]1CC[C@H]2[C@@H]3[C@H](OCCCN)C[C@@H]4C[C@H](OCCCN)CC[C@]4(C)[C@H]3C[C@H](OCCCN)[C@]12C.Cl.Cl.Cl.Cl.Cl.Cl` [CSA-54]: in the experiment with Pseudomonas aeruginosa, the “MBC P. aeruginosa” value was found to be 100 µg/mL and the “MIC P. aeruginosa” value stood at 50 µg/mL. In the experiment with Staphylococcus aureus, the “MBC S. aureus” value worked out at 25 µg/mL and the “MIC S. aureus” value turned out to be 6.25 µg/mL.

Consider `CCCCCN(CCCCC)CCC[C@@H](C)[C@H]1CC[C@H]2[C@@H]3[C@H](OCCCN)C[C@@H]4C[C@H](OCCCN)CC[C@]4(C)[C@H]3C[C@H](OCCCN)[C@]12C` [CSA-90], for which, in the experiment on Pseudomonas aeruginosa, the “MBC P. aeruginosa” value is 6.25 µg/mL (≈ 8.86 µM) and the “MIC P. aeruginosa” value came to 6.25 µg/mL (≈ 8.86 µM). In the experiment on Staphylococcus aureus, the “MBC S. aureus” value was determined as 1.56 µg/mL (≈ 2.21 µM) and the “MIC S. aureus” value was 1.56 µg/mL (≈ 2.21 µM).

On to `CCCCCCCCOC(=O)CC[C@@H](C)[C@H]1CC[C@H]2[C@@H]3[C@H](OC(=O)CCN)C[C@@H]4C[C@H](OC(=O)CCN)CC[C@]4(C)[C@H]3C[C@H](OC(=O)CCN)[C@]12C` [CSA-44], for which, in the experiment with Pseudomonas aeruginosa, the “MBC P. aeruginosa” value turned out to be 6.25 µg/mL (≈ 8.51 µM) and the “MIC P. aeruginosa” value is 3.125 µg/mL (≈ 4.26 µM). In the experiment on Staphylococcus aureus, the “MBC S. aureus” value stood at 3.25 µg/mL (≈ 4.43 µM) and the “MIC S. aureus” value was found to be 1.56 µg/mL (≈ 2.13 µM).
